Test results taken from US10071992B2, “Diacylglycerol acyl transferase 2 inhibitors” (Pfizer Inc., priority 2016, dated 2018).

Columns and labels:
human DGAT2 (hDGAT2) = human DGAT2 (hDGAT2) (Homo sapiens (Human), UniProt Q96PD7); assay: In vitro DGAT2 assay, determination of IC50 values for DGAT2 inhibitors; assay type: biochemical
Description: Recombinant baculovirus for the FLAG-tagged hDGAT2 was generated in SF9 insect cells using Bac-to-Bac baculovirus expression system (Invitrogen) according to the manufacturer's protocol. For the expression of hDGAT2, SF9 cells (20 L) grown in Sf90011 media were infected with hDGAT2 baculovirus at a multiplicity of infection of 1 in a Wave Bioreactor System 20/50P wave bag (GE Healthcare). After 40 hours of infection, the cells were then harvested by centrifugation at 5,000×g. The cell pellets were washed by resuspending in phosphate buffered saline (PBS) and collected by centrifugation at 5,000×g. The cell paste was flash frozen in liquid N2 and stored at −80° C. until needed. All operations below were at 4° C. unless otherwise noted. The cells were resuspended in lysis buffer (50 mM Tris-HCl, pH 8.0, 250 mM sucrose) including 1 mM ethylenediaminetetraacetic acid (EDTA) and the complete protease inhibitor cocktail (Roche Diagnostics) at a ratio of 3 ml buffer per 1 g cell paste. The cells were lysed by dounce homogenizer. The cell debris was removed by centrifugation at 1,000×g for 20 min, and the supernatant was centrifuged at 100,000×g for 1 hour. The resulting pellet was rinsed three times by filling ultracentrifuge tubes to the top with ice cold PBS before decanting. The washed pellet was resuspended with gentle stirring for 1 hour in lysis buffer containing 8 mM 3-[(3-cholamidopropyl)dimethylammonio]-1-propanesulfonate (CHAPS) at a ratio of 1 mL buffer per 1 g of original cell paste and centrifuged again at 100,000×g for 1 hour. The resulting supernatant was aliquotted, flash frozen in liquid N2, and stored at −80° C. until use.
To 1 μL of compounds dissolved in 100% DMSO and spotted at the bottom of each well, 5 μL of 0.04% bovine serum albumin (BSA) (fatty acid free, Sigma Aldrich) was added and the mixture was incubated at room temperature for 15 minutes. hDGAT2 membrane fractions were diluted in 100 mM Hepes-NaOH, pH 7.4, 20 mM MgCl2 containing 200 nM methyl arachidonyl fluorophosphonate (Cayman Chemical; dried from ethyl acetate stock solution under argon gas and dissolved in DMSO as 5 mM stock). 10 μL of this enzyme working solution was added to the plates and incubation continued for 2 hours at room temperature. DGAT2 reactions were initiated by the addition of 4 μL of substrates containing 30 μM [1-^14C]decanoyl-CoA (custom-synthesized by Perkin Elmer, 50 mCi/mmol) and 125 μM 1,2-didecanoyl-sn-glycerol (Avanti Polar Lipids) dissolved in 12.5% acetone. The reaction mixtures were incubated at room temperature for 40 min and the reactions were stopped by addition of 5 μL of 1% H3PO4. After the addition of 45 μL MicroScint-E (Perkin-Elmer), plates were sealed with Top Seal-A covers (Perkin-Elmer) and phase partitioning of substrates and products was achieved using a HT-91100 microplate orbital shaker (Big Bear Automation, Santa Clara, Calif.). Plates were centrifuged at 2,000×g for 1 minute in an Allegra 6R Centrifuge (Beckman Coulter) and then were sealed again with fresh covers before reading in a 1450 Microbeta Wallac Trilux Scintillation Counter (Perkin Elmer). DGAT2 activity was measured by quantifying the generated product [^14C]tridecanoylglycerol in the upper organic phase.
Inhibitors were tested at eleven different concentrations to generate IC50 values for each compound.

[1] = Metabolic clearance in HLM (hepatic clearance profile); assay type: in vitro ADME; conditions: human, human liver microsomes, read-out: Clint, app in HLM
DGAT2 = DGAT2 (Homo sapiens (Human), UniProt Q96PD7); assay: IC50 values for DGAT2 inhibitors in human hepatocytes; assay type: cell-based; conditions: geometric mean, N=10; cryopreserved human hepatocytes, DGAT1 inhibitor at 3 μM present, [1,3-14C]-glycerol incorporation
Sequence of DGAT2 (Q96PD7 whole entry): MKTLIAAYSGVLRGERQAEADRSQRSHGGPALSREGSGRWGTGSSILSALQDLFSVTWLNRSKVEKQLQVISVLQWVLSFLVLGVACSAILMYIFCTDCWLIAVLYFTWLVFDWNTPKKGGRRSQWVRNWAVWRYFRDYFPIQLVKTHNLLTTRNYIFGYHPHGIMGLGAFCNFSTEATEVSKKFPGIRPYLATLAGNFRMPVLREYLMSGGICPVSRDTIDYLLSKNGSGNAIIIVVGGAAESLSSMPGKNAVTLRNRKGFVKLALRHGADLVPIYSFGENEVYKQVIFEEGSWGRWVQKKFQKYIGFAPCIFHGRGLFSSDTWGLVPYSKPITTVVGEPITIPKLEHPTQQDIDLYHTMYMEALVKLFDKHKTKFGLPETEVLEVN
Description: After 24 hours overnight recovery period, the cells were overlayed with media containing 250 μg/ml Matrigel (BD Biosciences, San Jose, Calif.). The following day, media was aspirated and replaced with serum-free Williams Media E (Life Technologies, Grand Island, N.Y.) containing 400 μM sodium dodecanoate (Sigma-Aldrich, St. Louis, Mo.). […] After separation, radiolabeled lipids were visualized using a Molecular Dynamics' PhosphorImager system.

[2] = geometric mean, hDGAT2 membrane fraction, [1-14C]decanoyl-CoA and 1,2-didecanoyl-sn-glycerol
[3] = Table 3, comparison with WO2015140658 Example 19.21

Sequence of human DGAT2 (hDGAT2) (Q96PD7 whole entry): as above

SMILES | IC50 (human DGAT2 (hDGAT2); [2]) [nM] | also measured
CCOc1cccnc1Oc1cncc(-c2ncc(C(=O)NC3(C)CCS(=O)(=O)C3)cn2)c1 (centres unmarked) [Example 3.1, 2-(5-((3-ethoxypyridin-2-yl)oxy)pyridin-3-yl)-N-(3-methyl-1,1-dioxidotetrahydrothiophen-3-yl)pyrimidine-5-carboxamide] | 13.5 | –
CCOc1cccnc1Oc1cncc(-c2ncc(C(=O)NC(C)(C)CO)cn2)c1 [Example 5, 2-(5-((3-Ethoxypyridin-2-yl)oxy)pyridin-3-yl)-N-(1-hydroxy-2-methylpropan-2-yl)pyrimidine-5-carboxamide] | 14 | IC50 (human DGAT2 (hDGAT2); [3]): 14 nM; microsomal CLint [1]: 18 µL/min/mg
CCOc1cccnc1Oc1cncc(-c2ncc(C(=O)N[C@@H]3CCOC3)cn2)c1 [Example 2, (R)-2-(5-((3-Ethoxypyridin-2-yl)oxy)pyridin-3-yl)-N-(tetrahydrofuran-3-yl)pyrimidine-5-carboxamide] | 200 | –
CCOc1cccnc1Oc1cncc(-c2ncc(C(=O)NC(C)(C)CO)nn2)c1 [Example 7, 3-{5-[(3-ethoxypyridin-2-yl)oxy]pyridin-3-yl}-N-(1-hydroxy-2-methylpropan-2-yl)-1,2,4-triazine-6-carboxamide] | 83 | –
CCOc1nccnc1Oc1cncc(-c2ncc(C(=O)NC(C)(C)CO)cn2)c1 [Example 3.5, 2-(5-((3-ethoxypyrazin-2-yl)oxy)pyridin-3-yl)-N-(1-hydroxy-2-methylpropan-2-yl)pyrimidine-5-carboxamide] | 238 | –
CCOc1cccnc1Oc1cncc(-c2ncc(C(=O)NC(C)(CO)CO)cn2)c1 [Example 3.2, N-(1,3-dihydroxy-2-methylpropan-2-yl)-2-(5-((3-ethoxypyridin-2-yl)oxy)pyridin-3-yl)pyrimidine-5-carboxamide] | 83.6 | –
CCOc1cccnc1Oc1cncc(-c2ncc(C(=O)N[C@H]3CCOC3)cn2)c1 [Example 1, (S)-2-(5-((3-ethoxypyridin-2-yl)oxy)pyridin-3-yl)-N-(tetrahydrofuran-3-yl)pyrimidine-5-carboxamide] | – | IC50 (DGAT2): 2.8 nM
CCOc1cccnc1Oc1cncc(-c2ncc(C(=O)NC(C)(C)C#N)cn2)c1 [Example 4, N-(2-cyanopropan-2-yl)-2-(5-((3-ethoxypyridin-2-yl)oxy)pyridin-3-yl)pyrimidine-5-carboxamide] | 7.4 | –
CCOc1cc(F)cnc1Oc1cncc(-c2ncc(C(=O)N[C@H]3CCOC3)cn2)c1 [Example 8, (S)-2-(5-((3-Ethoxy-5-fluoropyridin-2-yl)oxy)pyridin-3-yl)-N-(tetrahydrofuran-3-yl)pyrimidine-5-carboxamide] | 3.7 | –
CCOc1cccnc1Oc1cncc(-c2ncc(C(=O)NC3CCS(=O)(=O)C3)cn2)c1 (centres unmarked) [Example 3.3, N-(1,1-dioxidotetrahydrothiophen-3-yl)-2-(5-((3-ethoxypyridin-2-yl)oxy)pyridin-3-yl)pyrimidine-5-carboxamide] | 196 | –
CCOc1ccccc1O[C@@H]1CCCN(c2ncc(C(=O)NC(C)(C)CO)cn2)C1 [WO2015140658 Example 19.21, reference compound] | – | IC50 (human DGAT2 (hDGAT2); [3]): 7.9 nM; microsomal CLint [1]: 121 µL/min/mg
CCOc1cccnc1Oc1cncc(-c2ncc(C(=O)NC(C)(C)CS(C)(=O)=O)cn2)c1 [Example 3.6, 2-(5-((3-ethoxypyridin-2-yl)oxy)pyridin-3-yl)-N-(2-methyl-1-(methylsulfonyl)propan-2-yl)pyrimidine-5-carboxamide] | 35.4 | –
CCOc1cccnc1Oc1cncc(-c2ncc(C(=O)N[C@H]3CCOC3)nn2)c1 [Example 3.4, (S)-3-(5-((3-ethoxypyridin-2-yl)oxy)pyridin-3-yl)-N-(tetrahydrofuran-3-yl)-1,2,4-triazine-6-carboxamide] | 181 | –
O=C(N[C@H]1CCOC1)c1cnc(-c2cncc(Oc3ncccc3OCCF)c2)nc1 [Example 3.7, (S)-2-(5-((3-(2-fluoroethoxy)pyridin-2-yl)oxy)pyridin-3-yl)-N-(tetrahydrofuran-3-yl)pyrimidine-5-carboxamide] | 66.5 | –
